Assay results taken from publication PMC8692993, “PPARα and PPARγ activation is associated with pleural mesothelioma invasion but therapeutic inhibition is ineffective” (iScience, 2021).
Where two headings read alike, the source gives them in different places.

Key:
PPARα [1] = molecular target: T1, PPARα (Homo sapiens, UniProt Q07869); parameters: expressed in transfected cells; host or cells: HG5LN (HeLa-derived, GAL4RE-luciferase); method as in Xu et al., 2002; details: inhibition of agonism by 10 nM GW409544, ref Xu et al., 2002, read-out: Functionality, Lit. IC50; cited from earlier work
T1 sequence (Q07869 239-466 limits assumed): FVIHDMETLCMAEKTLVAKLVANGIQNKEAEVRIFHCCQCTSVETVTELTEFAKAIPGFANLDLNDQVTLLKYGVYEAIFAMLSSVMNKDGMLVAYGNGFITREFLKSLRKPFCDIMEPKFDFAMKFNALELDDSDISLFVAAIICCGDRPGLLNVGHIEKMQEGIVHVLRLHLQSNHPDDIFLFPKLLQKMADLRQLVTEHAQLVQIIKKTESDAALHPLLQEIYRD

renal cell carcinoma = system: renal cell carcinoma; parameters: method as in Abu Aboud et al., 2015; details: 20 mg/kg; ref Abu Aboud et al., 2015; cited from earlier work
PPARα [2] = molecular target: T1, PPARα; experiment: LanthaScreen TR-FRET binding assay, PPARα; details: 2 h incubation, mean of 3 replicates ± SEM
Method: The LanthaScreen™ TR-FRET binding assay was performed following the manufacturer's guidelines (PV4894, Invitrogen) as follows, 20 mM stock solution of the ligand or control in DMSO were serially diluted using 100% DMSO to produce a range of concentrations from 100 μM to 1 pM. The test compound solutions were mixed with the reaction buffer in a 1 (ligand) in 10 (reaction buffer) dilution for a final 2X ligand concentration. This was mixed with the reaction components (glutathione S-transferase (GST)-PPPARγLBD (0.5 nM)/, terbium (Tb)-labelled anti-GST antibody (5 nM) and Fluormone pan-PPAR green (5 nM for PPARγ; 20 nM for PPARα) at room temperature in a ratio of 8 μLl 2X ligand solution: 4 μLl of 4XFluormone: and 4 μLl 4X GST-PPPARγLBD/terbium (Tb)-labelled anti-GST antibody to produce a final reaction mixture volume of 16 μL. The concentration of DMSO in the final reaction mixture was 5%. The reaction mixture was kept at room temperature for 2 h prior to recording the TR-FRET emission spectra using a CLARIOstar Plus microplate reader (BMG Labtech). […] Results are expressed as the ratio of fluorescence intensity at 520 nm (Fluormone emission) and 490 nm (Tb emission). […] For each compound three serial dilutions were prepared and measured separately. The IC50 and SEM values were determined using a sigmoidal dose-response equation with varying slope using GraphPad Prism.

AB1-Luc = experiment: Intraperitoneal AB1-Luc mesothelioma model, bioluminescence and histology; format: in vivo, BALB/c mice; details: for Tumor growth (bioluminescence, average radiance): versus controls
Method: Cells were trypsinized and washed two times in phosphate buffer saline (PBS) and counted with trypan blue dye. For the SC tumour model, mice were shaved on the right-hand flank and inoculated with 5x10^5 AB1 or 1x10^6 AE17 cells suspended in 100 μL PBS. Tumour volume (mm^3) was monitored with callipers. For the IPL tumour model, mice were anaesthetised under continuous isofluorane and inoculated with 5 x 10^5 AB1 or 1 x 10^6 AE17 cells suspended in 200 μL PBS into the pleural space as previously described ([Lansley et al., 2015]) Tumour size was determined by weighting together the tumour with the lungs minus the weight of aged matched healthy lungs. For the IP tumour model, mice where inoculated in the intraperitoneal cavity on the right flank with 5x10^5 AB1-Luc cells suspended in 200 μL PBS. Tumour size was determined by in vivo imaging system (IVIS), see below. All mice were euthanized in accordance with animal ethics guidelines.
Female BALB/cJAusb mice (10–12 weeks) were inoculated IP with 5 x 10^5 AB1-Luc on their right flank. Mice were randomly allocated to the different groups on the first treatment day. Treatment with ABT + GW6471 or GW6471 alone started on day 4 after tumour inoculation. IP Injections and concentrations were used as previously described in the “Mouse pharmacokinetic studies” section in experimental model and subject details. Initial mouse weight was measured immediately before the first injection, and it was used to calculate weight change daily. Mice were dosed for a maximum of seven consecutive days. In vivo imaging system (IVIS) (see below) was performed on days 3 (before treatment), 7 (during treatment) and 11 (after treatment). Mice were euthanized on day 11 in accordance with animal ethics guidelines and organs were harvested for staining.
XenoLight D-Luciferin potassium salt (PerkinElmer, VIC, Australia) was used at a 150 mg/kg concentration dissolved in sterile PBS. Approximately 150 μL (15 mg/mL concentration) was injected subcutaneously per mouse. […]

For `CCC(=O)NC[C@H](Cc1ccc(OCCc2nc(-c3ccccc3)oc2C)cc1)N/C(C)=C\C(=O)c1ccc(C(F)(F)F)cc1` [GW6471], the IC50 (PPARα [1]) is given as 240 nM, the “Tumor reduction in vivo” value (renal cell carcinoma) is given as “significant tumor reduction” and the IC50 (PPARα [2]) is given as 95.3 ± 42 nM. The “Tumor growth (bioluminescence, average radiance)” value (AB1-Luc; GW6471 10 mg/kg IP daily from day 4, with ABT 50 mg/kg pre-treatment (ABT + GW6471)) was “no significant effect on tumor growth”, the “Tumor growth (bioluminescence, average radiance)” value (AB1-Luc; GW6471 10 mg/kg IP daily from day 4, without ABT) was “no significant effect on tumor growth” and the “Mesothelioma invasion and proliferation in vivo (histology)” value (AB1-Luc; GW6471 with or without ABT, all mice showed invasion into intestine and pancreas) was “no impact on mesothelioma invasion and proliferation in vivo”.
